Experiment: solubility of the peptide in the continuous phase
Type: physicochemical
Settings: continuous aqueous phase (demineralized water containing 1% PVA)
From the text: Although the solubility of this peptide in water is high, high encapsulation yields are obtained.

solubility in the continuous phase: about 45 mg/ml
SMILES: CC(C)C[C@H](NC(=O)[C@@H](Cc1c[nH]c2ccccc12)NC(=O)[C@H](Cc1ccc(O)cc1)NC(=O)[C@H](CO)NC(=O)[C@H](Cc1c[nH]c2ccccc12)NC(=O)[C@H](Cc1c[nH]cn1)NC(=O)[C@@H]1CCC(=O)N1)C(=O)N[C@@H](CCCNC(=N)N)C(=O)N1CCC[C@H]1C(=O)NCC(N)=O [[D-Trp^6]-LHRH]
